Measurements taken from US20130190370A1, “Novel Tetrahydronaphalene Antagonists to the Thromboxane A2 (TP) Receptor” (The Trustees of the University of Pennsylvania, priority 2010, published 2013).

Experiments:
human TP receptor [1] = target: T1, human TP receptor (Homo sapiens, UniProt P21731); assay: IP1 functional HTRF assay, human TP receptor; type: cell-based; conditions: I-BOP stimulated IP1
T1 construct: expressed in transfected cells
T1 sequence (P21731 1-343): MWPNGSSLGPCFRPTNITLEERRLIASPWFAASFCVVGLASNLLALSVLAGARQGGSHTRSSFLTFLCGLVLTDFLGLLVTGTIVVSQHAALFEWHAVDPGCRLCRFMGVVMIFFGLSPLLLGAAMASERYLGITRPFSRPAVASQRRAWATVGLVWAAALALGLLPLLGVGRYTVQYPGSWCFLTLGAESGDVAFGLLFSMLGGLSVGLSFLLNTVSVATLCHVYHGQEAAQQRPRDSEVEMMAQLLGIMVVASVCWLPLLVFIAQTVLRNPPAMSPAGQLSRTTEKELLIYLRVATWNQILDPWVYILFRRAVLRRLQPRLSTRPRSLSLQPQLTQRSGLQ
Experimental: (§1) Functional activity of the TP receptor was measured by homogenous time-resolved fluorescence (HTRF) (IP-One Tb, Cisbio, Bedford, Mass., USA). QBI-HEK 293A (MP Biomedicals, Solon, Ohio, USA) cells were transfected with human TP receptor or mouse TP receptor cDNAs cloned into the pcDNA5/TO vector (Invitrogen, Carlsbad, Calif., USA), and stable transformants were selected. Cells were plated at 200,000 cells/mL in DMEM containing 4.5 g/L glucose (Invitrogen, Carlsbad, Calif., USA), 10% fetal bovine serum, L-glutamine, and penicillin/streptomycin into 384-well plates (Grenier Bio-One, Monroe, N.C., USA), followed by incubation for 16 hours at 37° C. with 5% CO2. Culture media was removed and cells were then incubated for 15 min at 37° C. with 5% CO2 in 10 mM Hepes, 1 mM CaCl2, 0.4 mM MgCl2, 4.2 mM KCl, 146 mM NaCl, 5.5 mM glucose, 50 mM LiCl, pH 7.4 (stimulation buffer) containing varying concentrations of test antagonist. I-BOP ([1S-[1α,2α(Z),3β(1E,3S*),4α]]-7-[3-[3-hydroxy-4-(4-iodophenoxy)-1-butenyl]-7-oxabicyclo[2.2.1]hept-2-yl]-5-heptenoic acid) (Cayman Chemicals, Ann Arbor, Mich., USA) was added at a final concentration of 1.6 nM in stimulation buffer and incubated for 1 hour at 37° C. with 5% CO2. […] Plates were then read on a Spectramax M5 microplate reader (Molecular Devices, Sunnyvale, Calif., USA). Data are expressed as the ratio of 665 nm/620 nm fluorescence. […]

mouse TP receptor [2] = target: T2, mouse TP receptor (Mus musculus, UniProt P30987); assay: Radioligand binding assay (3H-SQ29,548), mouse TP receptor; conditions: mTP receptor
T2 construct: expressed in transfected cells
T2 sequence (P30987 1-341): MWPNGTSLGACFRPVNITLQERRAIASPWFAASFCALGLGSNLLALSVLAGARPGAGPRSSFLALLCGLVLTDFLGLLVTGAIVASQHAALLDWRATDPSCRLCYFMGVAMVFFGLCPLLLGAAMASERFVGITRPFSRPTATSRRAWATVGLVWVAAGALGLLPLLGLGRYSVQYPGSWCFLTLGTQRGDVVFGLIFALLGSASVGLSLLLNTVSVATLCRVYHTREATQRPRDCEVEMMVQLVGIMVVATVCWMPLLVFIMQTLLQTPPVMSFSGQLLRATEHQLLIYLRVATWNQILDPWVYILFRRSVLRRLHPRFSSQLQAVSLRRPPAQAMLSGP
Experimental: (§2) QBI-HEK 293A cells expressing human or mouse TxA2 (TP) receptor were grown as described previously and harvested in phosphate-buffered saline with 1 mM EDTA. The cell pellet was homogenized in a glass homogenizer in 20 mM Hepes, 1 mM EGTA, 0.5 mM DTT with protease inhibitor cocktail. The homogenate was initially centrifuged at 1000×g for 10 minutes at 8° C. to remove cell debris. The homogenate was then centrifuged in a Beckman L8-70M ultracentrifuge (Beckman-Coulter, Brea, Calif., USA) at 21,000 rpm for 30 minutes at 4° C., and the pellet was resuspended in 20 mM Hepes, 1 mM EGTA, 100 mM NaCl. Membrane preparations were normalized to protein level as determined with a BCA assay (ThermoFisher, Rockland, Ill.) and stored at −80° C.
(§3) Test antagonists were incubated at 10 different concentrations with 25 μg membrane and 25 nM ^3H-SQ29,548 (PerkinElmer, Waltham, Mass., USA) in 50 mM Tris, 4 mM CaCl2, 0.1% ascorbic acid pH 7.5 for 2 hours at 25° C. in 96-well polystyrene plates. Separation of bound from free radioligand was accomplished by rapid vacuum filtration onto 96-well GF/B filter plates (PerkinElmer, Waltham, Mass., USA). Filters were washed 8 times in 50 mM Tris, pH 6.9 and allowed to dry for 16 hours, Plates were sealed and filters dissolved in 50 μL Betaplate Scintillation fluid (PerkinElmer, Waltham, Mass., USA) and read on a scintillation counter. Data are presented as percent total binding as calculated by a minimum of 3 wells containing membrane and ^3H-SQ29,548 without antagonist.
(§4) Equilibrium dissociation constants (Kd), IC50, and Schild regression analyses was performed with GraphPad Prism software (GraphPad Software Inc., La Jolla, Calif., USA).
(§5) To facilitate the characterization of the new compounds, cell-based TP receptor functional assays were optimized. HEK293 clones have been produced that stably express the human (hTP) or mouse (mTP) TP receptor (a isoform), and treatment of these clones with I-BOP ([1S-[1α,2α(Z),3β(1E,3S*),4α]]-7-[3-[3-hydroxy-4-(4-iodophenoxy)-1-butenyl]-7-oxabicyclo[2.2.1]hept-2-yl]-5-heptenoic acid) results in increased production of inositol triphosphate (IP3) (Knezevic, et al., 1993, Blood 82:A156; Shenker, et al., 1991, J Biol Chem 266:9309-9313; Huang, et al., 2004, Cell Signal 16:521-533) which can be quantified by measuring the breakdown product, inositol monophosphates (IP1), using a commercial time-resolved fluorescence assay. […] A radioligand binding assay was also developed to allow for the determination of binding affinities of compounds at the hTP and mTP receptors.

human TP receptor [3] = target: T1, human TP receptor; assay: Radioligand binding assay (3H-SQ29,548), human TP receptor; conditions: hTP receptor
Experimental: as §2, §3, §4, §5

mouse TP receptor [4] = target: T2, mouse TP receptor; assay: IP1 functional HTRF assay, mouse TP receptor; type: cell-based; conditions: I-BOP stimulated IP1
Experimental: as §1

[5] = Pro-drug study: plasma levels of compound and carboxylic acid hydrolysis product (51280) by LC-MS/MS; type: in vivo; conditions: female mice, 5 mg/kg, 1 h after injection
Experimental: Ester and amide examples can serve as pro-drugs to release the potent carboxylic acid TP receptor antagonist CNDR-51280. Compounds in were administered at 5 mg/kg to female mice, and levels of the compound and the carboxylic acid hydrolysis product (51280) were evaluated by LC-MS/MS 1 h after injection (Table 3).

O=C(O)CCc1cccc2c1CCC(NS(=O)(=O)c1ccc(Cl)cc1)C2 (centres unmarked) [Compound 51280, 3-(6-(4-Chloroplienyistilfonamido)-5,6,7,8-tetrahydronaplithalen-1-yl)propanaic acid]
antagonist activity (human TP receptor [1]): potent antagonist
affinity for TP receptor (mouse TP receptor [2]): high affinity
affinity for TP receptor (human TP receptor [3]): high affinity
antagonist activity (mouse TP receptor [4]): potent antagonist
Plasma (compound) [5]: 10376 (+/− 3480) nM
